The test system of test [1] is KRas-mediated phosphorylation of ERK in H460 cells. Briefly: Inhibition of KRas-mediated phosphorylation of ERK (Cisbio HTRF pERK), H460 cells. It is filed as cell-based. Conditions: Homo sapiens, NCI-H460, HTRF pERK. In outline:
(§1)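 A cell-based HTRF pERK assay: ten-point, threefold titrations beginning at 10 uM were applied for 3 hrs, with 0.2 uM Trametinib wells as the minimum control. Cells were lysed cold, and lysate was incubated with the antibody pair for 2 hrs before reading.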

Test [2] deals with KRas-mediated phosphorylation of ERK in AsPC-1 cells. Briefly: Inhibition of KRas-mediated phosphorylation of ERK (Cisbio HTRF pERK), AsPC-1 cells. The class given is cell-based. The note with it: Homo sapiens, ASPC1, AsPC-1 cells; HTRF pERK. In outline: as §1
(In TR-FRET formats the signal depends on donor and acceptor labels being close together.)

Test [3] relates to KRas-mediated phosphorylation of ERK in A549 cells. Briefly: Inhibition of KRas-mediated phosphorylation of ERK (Cisbio HTRF pERK), A549 cells. The class given is cell-based. Conditions: Homo sapiens, HTRF pERK. Put shortly: (§2)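 6,000 cells/well; cpd 10 uM top, 3-fold x10, 0.8% DMSO final; 3 hr incubation; Min ctrl Trametinib 0.2 uM; lysis 40 min 4° C shaking; d2 + Cryptate Ab mix, 2 hr RT; HTRF read.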

The target in test [4] is T1, KRas^G12D (Homo sapiens, UniProt P01116, G12D).
T1 construct: Biotinylated KRas (corresponding to amino acids 1-169, produced at Accelegan Inc.); biotin (biotinylated); purchased Accelegan Inc
Briefly: KRas binding assay (TR-FRET tracer displacement), KRas G12D.

The subject of test [5] is KRas-mediated phosphorylation of ERK in MKN1 cells. As to the kind of experiment: Inhibition of KRas-mediated phosphorylation of ERK (Cisbio HTRF pERK), MKN1 cells. The class given is cell-based. The note with it: Homo sapiens, MKN-1. In outline: (§3)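 Phospho-ERK is quantified by HTRF with the Advanced pERK kit. Cells go in at 6,000/well in RPMI plus 10% FBS overnight at 37° C. under 5% CO2, with a 4-hour covered room-temperature incubation ahead of the read.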

Test [6] has as its system KRas-mediated phosphorylation of ERK in HCT116 cells. Briefly: Inhibition of KRas-mediated phosphorylation of ERK (Cisbio HTRF pERK), HCT116 cells. It is filed as cell-based. Conditions: Homo sapiens, HCT-116, HTRF pERK. Put shortly: as §2
For test [7], the target named is T2, KRas^G12V (Homo sapiens, UniProt P01116, G12V).
T2 construct: Biotinylated KRas (corresponding to amino acids 1-169, produced at Accelegan Inc.); biotin (biotinylated); purchased Accelegan Inc
Briefly: KRas binding assay (TR-FRET tracer displacement), KRas G12V.

Test [8] has as its system KRas-mediated phosphorylation of ERK in H358 cells. Briefly: Inhibition of KRas-mediated phosphorylation of ERK (Cisbio HTRF pERK), H358 cells. It is filed as cell-based. Conditions: Homo sapiens, NCI-H358, HTRF pERK. In outline:
as §1

Test [9] concerns the target T3, KRas^G12C (Homo sapiens, UniProt P01116, G12C).
T3 construct: Biotinylated KRas (corresponding to amino acids 1-169, produced at Accelegan Inc.); biotin (biotinylated); purchased Accelegan Inc
As to the kind of experiment: KRas binding assay (TR-FRET tracer displacement), KRas G12C. The note with it: TR-FRET tracer displacement, KRas G12C.

The subject of test [10] is KRas-mediated phosphorylation of ERK in H727 cells. Briefly: Inhibition of KRas-mediated phosphorylation of ERK (Cisbio HTRF pERK), H727 cells. It is filed as cell-based. The note with it: Homo sapiens, NCI-H727, H727 cells; HTRF pERK. In outline:
as §1

Test [11] relates to KRas-mediated phosphorylation of ERK in PSN1 cells. Briefly: Inhibition of KRas-mediated phosphorylation of ERK (Cisbio HTRF pERK), PSN1 cells. Conditions: Homo sapiens. The class given is cell-based. Put shortly: as §3
The target in test [12] is T4, KRas^G12S (Homo sapiens, UniProt P01116, G12S).
T4 construct: Biotinylated KRas (corresponding to amino acids 1-169, produced at Accelegan Inc.); biotin (biotinylated); purchased Accelegan Inc
As to the kind of experiment: KRas binding assay (TR-FRET tracer displacement), KRas G12S. Conditions: TR-FRET tracer displacement, KRas G12S.

Test [13] deals with T5, KRas^WT (Homo sapiens, UniProt P01116).
T5 construct: Biotinylated KRas (corresponding to amino acids 1-169, produced at Accelegan Inc.); biotin (biotinylated); purchased Accelegan Inc
As to the kind of experiment: KRas binding assay (TR-FRET tracer displacement), KRas WT. The note with it: TR-FRET tracer displacement, KRas WT.

T4 sequence (P01116 1-169 isoform P01116-2 G12S): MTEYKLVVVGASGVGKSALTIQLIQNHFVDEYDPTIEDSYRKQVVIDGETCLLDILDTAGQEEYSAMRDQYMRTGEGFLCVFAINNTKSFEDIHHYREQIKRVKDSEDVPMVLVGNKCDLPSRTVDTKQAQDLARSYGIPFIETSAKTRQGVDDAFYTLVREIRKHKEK
T5 sequence (P01116 1-169 isoform P01116-2): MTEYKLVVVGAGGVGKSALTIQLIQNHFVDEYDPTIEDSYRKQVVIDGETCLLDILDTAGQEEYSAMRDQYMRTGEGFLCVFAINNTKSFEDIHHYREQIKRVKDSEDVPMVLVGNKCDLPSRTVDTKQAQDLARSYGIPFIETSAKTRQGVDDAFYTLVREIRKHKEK
T1 sequence (P01116 1-169 isoform P01116-2 G12D): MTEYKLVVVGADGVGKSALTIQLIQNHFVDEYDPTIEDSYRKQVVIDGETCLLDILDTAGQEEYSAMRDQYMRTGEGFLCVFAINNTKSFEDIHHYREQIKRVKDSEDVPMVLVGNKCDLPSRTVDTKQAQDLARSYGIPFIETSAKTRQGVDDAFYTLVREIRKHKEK
T2 sequence (P01116 1-169 isoform P01116-2 G12V): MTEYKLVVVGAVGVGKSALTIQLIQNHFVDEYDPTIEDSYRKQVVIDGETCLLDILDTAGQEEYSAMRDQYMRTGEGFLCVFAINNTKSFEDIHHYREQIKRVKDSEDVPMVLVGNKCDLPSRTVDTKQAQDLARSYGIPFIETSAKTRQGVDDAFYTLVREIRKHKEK
T3 sequence (P01116 1-169 isoform P01116-2 G12C): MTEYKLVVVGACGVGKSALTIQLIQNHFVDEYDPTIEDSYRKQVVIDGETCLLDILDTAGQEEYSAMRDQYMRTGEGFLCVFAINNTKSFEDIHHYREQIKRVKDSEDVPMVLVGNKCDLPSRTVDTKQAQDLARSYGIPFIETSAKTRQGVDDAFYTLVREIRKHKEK

Broadly, the IC50 is the concentration needed to halve the response being measured. As for `CCc1c(F)ccc2cc(O)cc(-c3ncc4c(N5CCC[C@@](C)(O)C5)nc(OC[C@@]56CCCN5CC(=C(F)F)C6)nc4c3F)c12` (single isomer, unassigned) [Example 918], the IC50 in test [1] is 5 nM; in [2], 3 nM; in [3], 4 nM; in test [4], < 2 nM; in [5], 1 nM; in test [6], 12 nM. The IC50 in test [7] is < 2 nM; in test [8], 3 nM; in test [9] it was < 2 nM; in [10] it was 17 nM; in test [11], 490 nM; in [12], < 2 nM. For the same molecule, the IC50 in test [13] was < 2 nM.

On to `CCc1c(F)ccc2cc(O)cc(-c3ncc4c(N5CCC[C@@](C)(O)C5)nc(OC[C@]56CCCN5CC(=C(F)F)C6)nc4c3F)c12` (single isomer, unassigned) [Example 919], for which the IC50 in test [1] is 10 nM; in [2] it was 14 nM; in test [3], 19 nM; in test [4], < 2 nM; in [5], 3 nM; in [6], 37 nM. The IC50 in test [7] is < 2 nM; in test [8] it was 14 nM; in [9], < 2 nM; in [10], 43 nM; in test [11] it was 2480 nM; in test [12], < 2 nM. Further, in test [13], the IC50 is < 2 nM.

For the molecule `C=C1CN2CCCC2(COc2nc(N3CCCC(C)(O)C3)c3cnc(-c4cc(O)cc5ccc(F)c(CC)c45)c(F)c3n2)C1` (stereo in doubt) [Example 797, (3R)-1-(7-(8-ethyl-7-fluoro-3-hydroxynaphthalen-1-yl)-8-fluoro-2-((2-methylenetetrahydro-1H-pyrrolizin-7a(5H)-yl)methoxy)pyrido[4,3-d]pyrimidin-4-yl)-3-methylpiperidin-3-ol], the IC50 was 3 nM in [1]; 1 nM in test [2]; 3 nM in test [3]; < 2 nM in test [4]; 10 nM in test [6]; < 2 nM in test [7]. Moreover, the IC50 in test [8] was 1 nM; in test [9], < 2 nM; in test [10], 4 nM; in test [11], 296 nM; in test [12] it was < 2 nM; in [13], < 2 nM.

In the case of `C[C@@H]1C[C@@H]1c1c(Cl)cc(O)cc1-c1ncc2c(N3C[C@@H]4C[C@H](C3)[C@H](O)C4)nc(OC[C@@]34CCCN3C[C@H](F)C4)nc2c1F` (stereo in doubt) [Example 920, (1R,5R,6R)-3-(7-(3-chloro-5-hydroxy-2-(cis-2-methylcyclopropyl)phenyl)-8-fluoro-2-(((2R,7aS)-2-fluorotetrahydro-1H-pyrrolizin-7a(5H)-yl)methoxy)pyrido[4,3-d]pyrimidin-4-yl)-3-azabicyclo[3.2.1]octan-6-ol], the IC50 came to 15 nM in [1]; 77 nM in [2]; 19 nM in [3]; 4 nM in test [4]; 4 nM in test [5]; 44 nM in test [6]. Also, the IC50 in [7] is < 2 nM; in test [8], 12 nM; in [9], < 2 nM; in test [10] it was 42 nM; in [11] it was 2060 nM; in test [12] it was < 2 nM. Moreover, in test [13], the IC50 came out at 2 nM.

In the case of `CCc1c(F)ccc2cc(O)cc(-c3ncc4c(N5C[C@@H]6C[C@H](C5)[C@H](O)C6)nc(OCC56CC(F)CN5CC(F)C6)nc4c3F)c12` (stereo partly drawn) [Example 923, (1R,5R,6R)-3-(2-((2,6-difluorotetrahydro-1H-pyrrolizin-7a(5H)-yl)methoxy)-7-(8-ethyl-7-fluoro-3-hydroxynaphthalen-1-yl)-8-fluoropyrido[4,3-d]pyrimidin-4-yl)-3-azabicyclo[3.2.1]octan-6-ol], the IC50 in test [2] worked out at 365 nM; in test [4], 18 nM; in test [5], 9 nM; in test [7] it was 4 nM; in test [9], 7 nM; in test [10], 125 nM. Further, the IC50 was > 10000 nM in test [11], 5 nM in test [12] and 8 nM in [13].

In the case of `CCc1c(F)ccc2cc(O)cc(-c3ncc4c(N5C[C@@H]6C[C@H](C5)[C@H](O)C6)nc(OCC56CCCN5CC(F)(F)C6)nc4c3F)c12` (stereo partly drawn) [Example 924, (1R,5R,6R)-3-(2-((2,2-difluorotetrahydro-1H-pyrrolizin-7a(5H)-yl)methoxy)-7-(8-ethyl-7-fluoro-3-hydroxynaphthalen-1-yl)-8-fluoropyrido[4,3-d]pyrimidin-4-yl)-3-azabicyclo[3.2.1]octan-6-ol], the IC50 amounted to 262 nM in [2]; 14 nM in test [4]; 14 nM in test [5]; 4 nM in test [7]; 7 nM in [9]; 118 nM in [10]. Also, the results for the IC50 in [11], in [12] and in test [13] were > 10000 nM, 5 nM and 7 nM, respectively.

Consider `CCc1c(F)ccc2cc(O)cc(-c3ncc4c(N5C[C@@H]6C[C@H](C5)[C@H](O)C6)nc(OC[C@@]56CCCN5C[C@@H](OC)C6)nc4c3F)c12` [Example 925, (1R,5R,6R)-3-(7-(8-ethyl-7-fluoro-3-hydroxynaphthalen-1-yl)-8-fluoro-2-(((2S,7aS)-2-methoxytetrahydro-1H-pyrrolizin-7a(5H)-yl)methoxy)pyrido[4,3-d]pyrimidin-4-yl)-3-azabicyclo[3.2.1]octan-6-ol], for which the IC50 in test [2] came out at 826 nM; in [4], 6 nM; in test [5], 9 nM; in test [7], 2 nM; in [9] it was 4 nM; in [10], 302 nM. Further, the values for the IC50 in [11], in test [12] and in [13] were > 10000 nM, 3 nM and 3 nM, respectively.

As for `CCc1c(F)ccc2cc(O)cc(-c3ncc4c(N5C[C@@H]6C[C@H](C5)[C@H](O)C6)nc(OC[C@@]56CCCN5C[C@H](OC)C6)nc4c3F)c12` [Example 926, (1R,5R,6R)-3-(7-(8-ethyl-7-fluoro-3-hydroxynaphthalen-1-yl)-8-fluoro-2-(((2R,7aS)-2-methoxytetrahydro-1H-pyrrolizin-7a(5H)-yl)methoxy)pyrido[4,3-d]pyrimidin-4-yl)-3-azabicyclo[3.2.1]octan-6-ol], the IC50 in test [2] is 66 nM; in [4], 2 nM; in test [5], 0.7 nM; in test [7], < 2 nM; in [9], < 2 nM; in test [10] it was 29 nM. The IC50 in test [11] is 3000 nM; in test [12], < 2 nM; in [13], < 2 nM.

As to `CCc1c(F)ccc2cc(O)cc(-c3ncc4c(N5C[C@@H]6C[C@H](C5)[C@H](O)C6)nc(OC[C@@]56CCCN5C[C@@H](F)C6)nc4c3F)c12` [Example 927, (1R,5R,6R)-3-(7-(8-ethyl-7-fluoro-3-hydroxynaphthalen-1-yl)-8-fluoro-2-(((2S,7aS)-2-fluorotetrahydro-1H-pyrrolizin-7a(5H)-yl)methoxy)pyrido[4,3-d]pyrimidin-4-yl)-3-azabicycle[3.2.1]octan-6-ol], the IC50 came to 468 nM in test [2]; 13 nM in [4]; 17 nM in test [5]; 4 nM in [7]; 7 nM in [9]; 202 nM in [10]. For the same molecule, the IC50 in test [11] is > 10000 nM; in test [12], 5 nM; in test [13], 6 nM.

For `CCc1c(F)ccc2cc(O)cc(-c3ncc4c(N5C[C@@H]6C[C@H](C5)[C@H](O)C6)nc(OCC56CCCN5C(C)CC6)nc4c3F)c12` (stereo partly drawn) [Example 928, (1R,5R,6R)-3-(7-(8-ethyl-7-fluoro-3-hydroxynaphthalen-1-yl)-8-fluoro-2-((3-methyltetrahydro-1H-pyrrolizin-7a(5H)-yl)methoxy)pyrido[4,3-d]pyrimidin-4-yl)-3-azabicyclo[3.2.1]octan-6-ol], the IC50 in [2] is 74 nM; in [4], 2 nM; in test [5], 3 nM; in test [7] it was < 2 nM; in [9], < 2 nM; in [10], 33 nM. Further, the concentration for half-maximal inhibition (IC50) in [11] was 2840 nM; in test [12] it was < 2 nM; in test [13], < 2 nM.
